# Test results reported in US20210330611A1, “THERAPY FOR NEUROLOGICAL DISEASES/DISORDERS” (priority 2020, published 2021).
# What was measured:
# [1] = test system: proinflammatory gene expression; test: qRT-PCR of spinal cord extracts of MOG35-55 EAE mice; format: in vivo, mouse; details: FIG. 7h
# [2] = cited from earlier work
# [3] = test system: LPS injection in the substantia nigra; test: LPS-induced neurodegeneration in substantia nigra, TH and Iba-1 immunohistochemistry; format: in vivo, mouse
# Description: Stereotactic LPS injection and drug treatment. Mice were anaesthetized with isoflurane and placed in a stereotactic apparatus (David Kopf Instruments). LPS (Sigma-Aldrich) was dissolved in endotoxin-free distilled water (HyClone) and was diluted to 1 μg/ml with PBS. LPS (2 μl of 1 μg/ml) or PBS was slowly injected (0.3 μl/min) using a 10-μl Hamilton syringe attached to a 33-G needle into the substantia nigra at coordinates (anteroposterior, 3.0 mm; mediolateral, 1.3 mm; dorsoventral, 4.7 mm from the bregma, according to Paxinos and Watson) Animals received acivicin (5 mg/kg) or saline intraperitoneally beginning 5 days before LPS injection and for 7 days after LPS injection. After 12 h of the LPS injection, the substantia nigra area was immediately collected on ice and kept at −80° C. for later analysis of GGT activity. After 7 d of the LPS injection, mice were perfused with 4% PFA, and the brains were post-fixed in 4% PFA overnight at 4° C. […] Images were acquired with all-in-one BZ-X700 fluorescence microscope. Images were quantified using NIH ImageJ (version 1.50) by blinded observers.
# chronic NOD MOG35-55 EAE = test: Immunohistochemistry of spinal cord in chronic NOD MOG35-55 EAE; format: in vivo, mouse
# GGT = target: T1, GGT (Mus musculus, UniProt Q60928); test: GGT activity assay in fibrin-stimulated BMDMs (enzymatic kit, ProteoGREEN-gGlu probe); format: cell-based; details: FIG. 6c, FIG. 13A, B
# T1 construct: GGT activity in BMDMs left unstimulated or stimulated with fibrin after acivicin or vehicle control treatment; endogenous in cells; host or cells: mouse bone marrow-derived macrophages (BMDMs), fibrin-stimulated
# Description: GGT activity assay. GGT activity was measured using the MaxDiscovery gamma-Glutamyl Transferase (GGT) Enzymatic Assay Kit (Bioo Scientific) according to the manufacturer's protocol. […]. For in vivo GGT activity assay, spinal cord tissues from the onset of MOG35-55 EAE or LPS-injected substantia nigra area at 12 h were prepared. Tissues were homogenized in 0.1 M Tris-HCl and centrifuged at 13,000 g for 30 min at 4° C. The supernatant was collected and subsequently assessed for GGT activity. The absorbance at 405 nm was detected with a SpectraMax M5 microplate reader (Molecular Devices) with SoftMax Pro 5.2 software (Phoenix Technologies Ltd.). The GGT activity in IU/1 was calculated following the manufacturer's protocol by multiplying the average increase in absorbance at 405 nm over 10 min GGT activity was also measured using a fluorescent probe, ProteoGREEN-gGlu (Goryo Chemical, Hokkaido, Japan), according to the manufacturer's protocol. Cultured BMDMs were plated on 96-well, black μ-clear-bottom microtiter plates (Greiner Bio-One) pre-coated with 25 μg/ml fibrin. […] The fluorescence intensity (excitation/emission filter pairs of 488 nm/520 nm) was measured using a SpectraMax M5 microplate reader (Molecular Devices) with SoftMax Pro 5.2 software (Phoenix Technologies).
# human macrophages = test: ROS production (DHE) in fibrin-stimulated human macrophages; format: cell-based; details: fibrin 24 h, 5 μM inhibitor, FIG. 6b
# Description: Human macrophage cultures. Human peripheral blood mononuclear cells (PBMCs) were purchased from AllCells, LLC (Alameda, Calif.). To differentiate PBMC into monocyte-derived macrophages, 2×10^6 PBMC/mL were plated in RPMI-1640 media supplemented with 10% FBS, 1% penicillin-streptomycin (Corning), and 50 ng/ml human M-CSF (300-25, Peprotech) in tissue-culture treated dishes (Corning). After 24 h, non-adherent cells were removed, and adherent cells were cultivated for 7-8 additional days at 37° C. in 5% CO2 to promote their full differentiation into macrophages. Oxidant detection with DHE. Intracellular concentrations of ROS were measured using dihydroethidium (DHE) as described (9). Cultured BMDMs or human macrophages were incubated in medium containing 5 μM DHE (Invitrogen) for 30 min Cells were plated on 96-well, black μ-clear-bottom microtiter plates (Greiner Bio-One) pre-coated with 25 μg/ml fibrin. For GGT inhibition, BMDMs or human macrophages were pre-incubated with 5 μM acivicin or GGsTop for 1 h, and the cells were plated on fibrin-coated 96-well plates as described above. PBS was used as vehicle control. Cells were then incubated for 24-48 h and fixed with 4% PFA for 10 min. The DHE fluorescence was detected at an excitation/emission wavelength of 518 nm/605 nm using a SpectraMax M5 microplate reader (Molecular Devices) with SoftMax Pro 5.2 software (Phoenix Technologies Ltd.).
# CD4+ T cells = test: Flow cytometry of splenocyte T cells from MOG35-55 EAE mice; format: in vivo, mouse; details: splenocytes, 10 days treatment, FIG. 14C-F
# Description: Flow cytometry. Cells were incubated with anti-mouse CD16/CD32 antibody (2.4G2) diluted in PBS with 2% FBS, and 2 mM EDTA at 4° C. for 15 min to block Fc receptor binding. Cells were stained with fluorescent-conjugated antibodies: CD3 (17A2), CD4 (GK1.5), CD8 (53-6.7), CD62L (MEL-14), CD44 (1M7), CD25 (3C7), CD11b (M1/70), CD45 (30-F11), and MHC II (M5/114.15.2). For surface labeling of GGT1, unconjugated mouse monoclonal anti-GGT1 (1:100; ab55138, Abcam) was incubated with surface markers for 1 hr at 4° C. Then FITC conjugated species-specific secondary antibody (1:100) was added for 1 hr at 4° C. For intracellular staining of IFN-γ and IL-17A, T cells were stimulated for 4 hr with Cell Activation Cocktail (BioLegend). Cells were then fixed with Cytofix/Cytoperm solution (BD Bioscience) and stained with antibodies to IL-17A (TC11-18H10.1), or IFN-γ (XMG1.2). Foxp3 (FJK-16S) staining was performed according to the manufacturer's protocol (eBioscience). Cells were analyzed by flow cytometry on an LSR II (BD Biosciences) with FlowJo software (Tree Star Inc.). Antibodies were purchased from BioLegend, BD Biosciences, or eBioscience.
# T1 sequence (Q60928 380-568): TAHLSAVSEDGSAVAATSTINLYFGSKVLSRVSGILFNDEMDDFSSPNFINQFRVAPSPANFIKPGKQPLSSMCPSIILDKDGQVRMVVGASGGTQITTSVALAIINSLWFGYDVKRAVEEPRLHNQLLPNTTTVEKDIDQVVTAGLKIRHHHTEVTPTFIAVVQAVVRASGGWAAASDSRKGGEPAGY
# T1 sequence (Q60928 1-379): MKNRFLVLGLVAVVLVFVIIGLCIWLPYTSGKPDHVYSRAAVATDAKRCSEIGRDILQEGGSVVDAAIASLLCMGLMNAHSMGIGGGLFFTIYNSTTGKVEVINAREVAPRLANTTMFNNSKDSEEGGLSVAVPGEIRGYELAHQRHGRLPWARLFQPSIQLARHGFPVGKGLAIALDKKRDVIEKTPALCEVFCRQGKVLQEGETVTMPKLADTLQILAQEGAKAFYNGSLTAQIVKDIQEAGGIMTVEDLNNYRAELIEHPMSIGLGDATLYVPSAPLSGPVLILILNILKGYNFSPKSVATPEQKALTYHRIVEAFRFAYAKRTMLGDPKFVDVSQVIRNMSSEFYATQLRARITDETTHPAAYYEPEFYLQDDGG
compound,measurement,setting,value
"N[C@H](C(=O)O)[C@@H]1CC(Cl)=NO1 [Acivicin, (2S)-2-amino-2-[(5S)-3-chloro-4,5-dihydro-1,2-oxazol-5-yl] acetic acid]",proinflammatory gene expression,[1],markedly reduced
same,toxicity in anti-cancer trials,[2],dose limiting toxicity
same,microglial activation (Iba-1),"[3]; 7 d after LPS, FIG. 15c",decreased
same,dopaminergic neuronal survival (TH),"[3]; mouse, in vivo",improved
same,demyelination (MBP),"chronic NOD MOG35-55 EAE; chronic phase, FIG. 8c",reduced
same,NADPH oxidase subunit gp91-phox,"chronic NOD MOG35-55 EAE; chronic phase, FIG. 8d",reduced
same,axonal damage (SMI-32),"chronic NOD MOG35-55 EAE; chronic phase, FIG. 8d",reduced
same,inducible nitric oxide synthase (iNOS),"chronic NOD MOG35-55 EAE; chronic phase, FIG. 8d",reduced
same,expression of GGT1,"chronic NOD MOG35-55 EAE; mouse, in vivo",reduced
same,fibrin-induced GGT activity in BMDMs,GGT,inhibited
same,ROS generation (DHE) in human macrophages,human macrophages,decreased
same,IFN-γ-producing T cells,CD4+ T cells,selectively decreased
same,IL-17-producing T cells,CD4+ T cells,selectively decreased
